From PMC6116245 (Viruses, 2018)
Values after ≈ are worked out from the molar mass of the structure shown. Values joined by “and” are separate entries in the source; they are usually repeats but may differ in a detail not shown here. Equal values may be shown once. “Also recorded” adds a separate entry of the source. Read-outs that look alike come from different tables or passages of the source.

Experiments:
[1] = in vivo; cited from earlier work
[2] = target: FCV protease (recombinant FCV Pro-Pol) (Feline calicivirus, UniProt Q66914); test: Protease FRET activity assay; assay type: biochemical, Feline calicivirus (FCV Urbana); details: for Inhibitory effect against FCV protease (in words): FRET assay, up to 50 µM
Sequence of FCV protease (recombinant FCV Pro-Pol) (Q66914 1072-1763): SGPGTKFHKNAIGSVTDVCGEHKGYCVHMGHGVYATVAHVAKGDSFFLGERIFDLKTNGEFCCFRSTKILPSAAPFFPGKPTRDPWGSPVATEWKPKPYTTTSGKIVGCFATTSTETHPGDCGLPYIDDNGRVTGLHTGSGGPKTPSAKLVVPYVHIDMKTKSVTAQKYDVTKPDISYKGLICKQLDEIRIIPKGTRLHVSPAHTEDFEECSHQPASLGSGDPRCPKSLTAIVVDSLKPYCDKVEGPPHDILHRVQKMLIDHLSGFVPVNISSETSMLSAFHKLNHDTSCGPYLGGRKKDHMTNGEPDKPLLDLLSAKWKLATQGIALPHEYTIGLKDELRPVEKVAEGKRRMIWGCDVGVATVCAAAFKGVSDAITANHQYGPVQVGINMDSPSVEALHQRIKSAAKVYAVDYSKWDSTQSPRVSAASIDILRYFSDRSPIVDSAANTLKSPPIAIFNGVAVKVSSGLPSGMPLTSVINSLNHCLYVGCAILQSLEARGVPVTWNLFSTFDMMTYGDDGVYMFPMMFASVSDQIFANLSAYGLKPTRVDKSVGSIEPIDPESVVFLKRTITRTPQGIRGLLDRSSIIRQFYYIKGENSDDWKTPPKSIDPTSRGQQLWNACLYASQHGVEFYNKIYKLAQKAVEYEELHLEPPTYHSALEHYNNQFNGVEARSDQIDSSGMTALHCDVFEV

FCV [3] = test system: FCV; design: method as in ref 26 = [26]; details: read-out: EC50 against FCV in vitro; cited from earlier work
chikungunya replicon = test system: chikungunya replicon; design: method as in ref 75 = [75]; details: cited from earlier work
HCV infectious virus = details: read-out: EC50 infectious HCV in cell cultures; cited from earlier work
FCV strain F-9 = test: FCV plaque reduction assay in CRFK cells; details: for Antiviral effect against FCV in cell culture (in words): plaque reduction assay; for Therapeutic index (TI = CC50/EC50): CRFK CC50 / FCV plaque reduction EC50
[4] = target: FCV RdRp (recombinant FCV Pro-Pol) (Feline calicivirus, UniProt Q66914); test: Fluorescent RdRp assay (PicoGreen, poly(C) template); details: for RdRp Activity [% of Mock at 10 µM]: 10 µM compound, remaining activity relative to mock; for Reduction of RdRp activity compared to mock controls: fixed concentration of 10 µM
Sequence of FCV RdRp (recombinant FCV Pro-Pol) (Q66914 1072-1763): as above

human norovirus RdRp = test system: human norovirus RdRp; design: method as in ref 59 = [59]; details: cited from earlier work
murine norovirus RdRp = test system: murine norovirus RdRp; design: method as in ref 59 = [59]; details: cited from earlier work
[5] = test system: Crandell Rees Feline Kidney (CRFK) cells
FCV [6] = test system: FCV; design: method as in ref 29, 30 = [29]; details: cell-based assays; read-out: EC50 against FCV; cited from earlier work
[7] = test system: Crandell Rees Feline Kidney (CRFK) cells; test: Cytotoxicity study, CellTitre-Blue viability assay; details: read-out: Cell Viability CC50; CRFK cells, 48 h, CellTitre-Blue
[8] = test system: FCV RNA in infected CRFK cells; test: FCV genome reduction assay by RT-qPCR; assay type: cell-based, Feline calicivirus; details: 24 h, MOI 0.0005
rotavirus = test system: rotavirus; design: method as in ref 54, 63 = [54]; details: cell culture; cited from earlier work
adenovirus = test system: adenovirus; design: method as in ref 54, 63 = [54]; details: cell culture; cited from earlier work
canine coronavirus = test system: canine coronavirus; design: method as in ref 54, 63 = [54]; details: cell culture; cited from earlier work
GI norovirus replicon = test system: GI norovirus replicon; design: method as in ref 64 = [64]; details: cleared the replicon from the host cells; cited from earlier work
murine norovirus [9] = test system: murine norovirus; design: method as in ref 64 = [64]; details: cited from earlier work
[10] = in vivo; cited from earlier work; remark: listed apart in the source
[11] = Cytotoxicity study, CellTitre-Blue viability assay; details: cat
in vitro = details: cat, Cell Viability CC50
FCV [12] = test system: FCV; design: method as in ref 25 = [25]; details: in vitro assays; cited from earlier work
[13] = test system: human GI.1 norovirus replicon; design: method as in ref 59 = [59]; details: cell culture; cited from earlier work
murine norovirus [14] = test system: murine norovirus; design: method as in ref 47, 57 = [47]; details: cell culture-based assays; cited from earlier work
human norovirus replicon = test system: human norovirus replicon; design: method as in ref 47, 57 = [47]; details: cell culture-based assays; cited from earlier work
human norovirus = test system: human norovirus; design: method as in ref 60 = [60]; details: B-cell culture system; cited from earlier work
[15] = test system: human norovirus protease (genogroup I and II); design: method as in ref 29, 52 = [29]; details: FRET-based assays; cited from earlier work
[16] = FRET, 50 µM substrate, read-out: In vitro Protease IC50
[17] = Feline calicivirus, CRFK, 24 h, read-out: Inhibition of plaque formation
[18] = Feline calicivirus, CRFK, 24 h, read-out: Plaque Reduction Assay EC50
[19] = read-out: Plaque Reduction Assay EC50, FCV in CRFK cells, 24 h
[20] = Feline calicivirus, CRFK, 24 h, read-out: Plaque Reduction Assay EC50, FCV in CRFK cells, 24 h
[21] = Crandell Rees Feline Kidney (CRFK) cells, Cell Viability CC50, CRFK cells, 48 h, CellTitre-Blue

## CC(C)[C@H](N)C(=O)O[C@@H]1[C@@H](CO)O[C@@H](n2ccc(N)nc2=O)[C@]1(C)O [Valopicitabine]
[1]
  Adverse events: dose-related gastrointestinal adverse events

## CC(C)C[C@H](NC(=O)[C@@H](NC(=O)N[C@@H](Cc1ccccc1)C(=O)O)[C@@H]1CCN=C(N)N1)C(=O)N[C@H](C=O)Cc1ccccc1 [Chymostatin, chymostatin]
[2]
  Inhibitory effect against FCV protease (in words): no inhibitory effect
[2]; [16]
  IC50: > 50 µM

## OC(c1cc(C(F)(F)F)nc2c(C(F)(F)F)cccc12)C1CCCCN1 (centres unmarked) [Mefloquine]
FCV [3]
  EC50: 6.03 µM

## O=c1c(O)c(-c2ccc(O)c(O)c2)oc2cc(O)c(O)c(O)c12 [Quercetagetin, quercetagetin]
Chikungunya replicon
  IC50: 43.5 µM
HCV infectious virus
  EC50: 40.2 µM
FCV strain F-9; [17]
  inhibition at 10 µM: < 10%
FCV strain F-9; [18]
  EC50: > 10 µM
FCV strain F-9
  Antiviral effect against FCV in cell culture (in words): did not display antivirals effects; also recorded: did not inhibit FCV plaque formation
[4]
  IC50: 2.8 µM
  RdRp Activity [% of Mock at 10 µM]: 11.7%
  Reduction of RdRp activity compared to mock controls: 88.3%

## C[C@@]1(O)[C@H](O)[C@@H](COP(=O)(O)OP(=O)(O)OP(=O)(O)O)O[C@H]1n1ccc(N)nc1=O [tri-phosphorylated 2CMC]
Human norovirus RdRp
  IC50: 2.4 µM
Murine norovirus RdRp
  IC50: 1.4 µM

## CC(C)C[C@H](NC(=O)OCc1ccccc1)C(=O)N[C@@H](CC1CCNC1=O)C(O)S(=O)(=O)O (some centres unmarked) [GC376]
[2]; [16]
  IC50: 18 µM and 18.7 µM
[5]
  CC50: > 100 µM
FCV [6]
  EC50: 35 µM and 35.2 µM
FCV strain F-9; [19]
  EC50: > 10 µM

## Cc1nc(N=Nc2cc(S(=O)(=O)O)c3cc([N+](=O)[O-])cc(S(=O)(=O)O)c3c2)c(COP(=O)(O)O)c(C=O)c1O [PPNDS]
FCV strain F-9; 10 µM, 24 h
  Inhibition of plaque formation: < 10%
FCV strain F-9
  Antiviral effect against FCV in cell culture (in words): did not display antivirals effects
FCV strain F-9; [19]
  EC50: > 10 µM
[7]
  CC50: > 100 µM
[4]
  RdRp Activity [% of Mock at 10 µM]: 7.4%
  Reduction of RdRp activity compared to mock controls: 92.6%
[4]; read-out: RdRp Activity IC50, dose-response 0.1-100 µM
  IC50: 2.7 µM

## CC(=O)Oc1ccccc1C(=O)Nc1ncc([N+](=O)[O-])s1 [Nitazoxanide, nitazoxanide]
[2]
  IC50: > 10 µM
[8]; 2.5 µM
  Reduction of FCV RNA levels compared to mock-treated cells: 80%
rotavirus
  EC50 rotavirus replication: 0.5 µg/mL (≈ 1.63 µM)
adenovirus
  EC50 adenovirus replication: 0.2 µg/mL (≈ 0.651 µM)
Canine coronavirus
  EC50 canine coronavirus replication: 1 µg/mL (≈ 3.25 µM)
GI norovirus replicon
  Concentration reported to inhibit GI norovirus replicon replication: 5 µg/mL
Murine norovirus [9]
  Activity against murine norovirus (in words): ineffective
[10]
  Side-effects observed in cats: diarrhea and vomiting
FCV strain F-9
  Therapeutic index (TI = CC50/EC50): 21.1
FCV strain F-9; [20]
  EC50: 0.5 µM
FCV strain F-9; Feline calicivirus, CRFK, read-out: Plaque reduction EC50, FCV in CRFK cells, same value given in µg/mL
  EC50: 0.2 µg/mL
FCV strain F-9; [19]
  EC50: 0.6 µM
[11]; [21]
  CC50 at 48 h: 12.7 µM
[4]
  IC50: > 10 µM

## CC(=O)OCC(CCn1cnc2cnc(N)nc21)COC(C)=O [Famciclovir]
In vitro
  CC50 at 48 h: > 100 µM
FCV strain F-9; [20]
  EC50: > 50 µM
FCV strain F-9; Feline calicivirus, CRFK, read-out: Inhibition of plaque formation
  inhibition at 50 µM: 10%
FCV strain F-9
  Antiviral effect against FCV in cell culture (in words): no antiviral effect observed

## O=C(O)c1ccc2c(c1)nc(-c1ccc(OCc3cc(N4CCCC4=O)ccc3-c3ccc(Cl)cc3)cc1F)n2C1CCCCC1 [JTK-109]
[4]
  RdRp Activity [% of Mock at 10 µM]: 89.8%
  Reduction of RdRp activity compared to mock controls: ≤ 10%

## COc1ccc2c(c1)C=C1Cn3c-2c(C2CCCCC2)c2ccc(cc23)C(=O)NS(=O)(=O)N(C)CCOCCN(C)C1=O [TMC-647055]
[11]; [21]
  CC50 at 48 h: < 30 µM
[7]
  CC50: 27.1 µM
[4]
  RdRp Activity [% of Mock at 10 µM]: 93.5%
  Reduction of RdRp activity compared to mock controls: ≤ 10%

## CC(C)C[C@H](NC(=O)[C@H](Cc1cccc2ccccc12)NC(=O)OCc1ccccc1)C(=O)N[C@H](C=O)C[C@@H]1CCNC1=O [NPI52]
FCV [6]
  EC50: 0.02 µM

## CC(C)C[C@H](NC(=O)OCc1ccccc1)C(=O)N[C@@H](C[C@@H]1CCNC1=O)C(O)S(=O)(=O)[O-].[Na+] (some centres unmarked) [GC376]
[2]; 50 µM
  Inhibition of FCV protease: 75%
FCV strain F-9
  Antiviral effect against FCV in cell culture (in words): did not display antivirals effects

## COc1ccc2c(c1)[C@@H]1C[C@]1(C(=O)N1[C@@H]3CC[C@H]1CN(C)C3)Cn1c-2c(C2CCCCC2)c2ccc(C(=O)NS(=O)(=O)N(C)C)cc21 [Beclabuvir]
[11]; [21]
  CC50 at 48 h: < 30 µM
[7]
  CC50: 27.5 µM
[4]
  RdRp Activity [% of Mock at 10 µM]: 92.2%
  Reduction of RdRp activity compared to mock controls: ≤ 10%

## COC(=O)/C=C/c1cccc(N(Cc2ccc(-c3ccc(N(C)C)cc3)cc2)C(=O)C2CCCCC2)c1 [fexaramine]
FCV [12]
  Blocking of FCV entry (in words): effective at blocking FCV entry

## NC(=O)c1nc(F)c[nH]c1=O [T-705, Favipiravir]
FCV strain F-9; [17]
  inhibition at 10 µM: < 10%
FCV strain F-9; [20]
  EC50: > 10 µM
[11]; [21]
  CC50 at 48 h: > 100 µM

## C[C@@]1(O)[C@H](O)[C@@H](CO)O[C@H]1n1ccc(N)nc1=O [2CMC, 2′-C-methylcytidine]
[8]; 10 µM
  Reduction of FCV RNA levels compared to mock-treated cells: 95%
[13]
  EC50: 8.2 µM
Murine norovirus [14]
  EC50: ~2 µM
Human norovirus replicon
  EC50: ~18 µM
Human norovirus
  EC50: 0.3 µM
FCV strain F-9
  Therapeutic index (TI = CC50/EC50): > 40
FCV strain F-9; [20]
  EC50: 2.5 µM
FCV strain F-9; [19]
  EC50: 2.6 µM
[11]; [21]
  CC50 at 48 h: > 100 µM

## CC(C)OC(=O)[C@H](C)N[P@](=O)(OC[C@H]1O[C@@H](n2ccc(=O)[nH]c2=O)[C@](C)(F)[C@@H]1O)Oc1ccccc1 [Sofosbuvir]
FCV strain F-9; [17]
  inhibition at 10 µM: < 10%
FCV strain F-9; [18]
  EC50: > 10 µM
[11]
  CC50 at 48 h: > 100 µM

## CCOC(=O)/C=C/[C@H](C[C@@H]1CCNC1=O)NC(=O)[C@@H](CC(=O)[C@@H](NC(=O)c1cc(C)on1)C(C)C)Cc1ccc(F)cc1 [Rupintrivir, rupintrivir]
[2]
  IC50: > 50 µM
  Inhibitory effect against FCV protease (in words): no inhibitory effect
FCV [6]
  EC50: > 50 µM
[15]
  IC50: < 1 µM
[11]; [21]
  CC50 at 48 h: > 100 µM
